From patent US20090263830A1, “VISUALIZATION AND QUANTITIATION OF CELLULAR CYTOTOXICITY USING CELL-PERMEABLE FLUOROGENIC PROTEASE SUBSTRATES AND CASPASE ACTIVITY INDICATOR MARKERS” (Oncoimmunin, Inc., priority 2002, published 2009)

B1: PE-labeled Annexin V: phycoerythrin labeled annexin V, cell surface marker of apoptosis (protein, UniProt P08758 2-320, looked up)
Annexin A5: AQVLRGTVTDFPGFDERADAETLRKAMKGLGTDEESILTLLTSRSNAQRQEISAAFKTLFGRDLLDDLKSELTGKFEKLIVALMKPSRLYDAYELKHALKGAGTNEKVLTEIIASRTPEELRAIKQVYEEEYGSSLEDDVVGDTSGYYQRMLVVLLQANRDPDAGIDEAQVEQDAQALFQAGELKWGTDEEKFITIFGTRSVSHLRKVFDKYMTISGFQIEETIDRETSGNLEQLLLAVVKSIRSIPAYLAETLYYAMKGAGTDDHTLIRVMVSRSEIDLFNIRKEFRKNFATSLYSMIKGDTSGDYKKALLLLCGEDD
modifications: phycoerythrin label
notes: phycoerythrin labeled annexin V, cell surface marker of apoptosis

Tests used:
Jurkat cells = test: Cellular cytotoxicity assay using various apoptosis/caspase activity markers and protease indicators; format: cell-based, human; conditions: indicator used for read-out, E:T 5 to 1
EL4 cells = test: Flow-cytometry fluorescence cellular cytotoxicity (FCC) assay, CTL killing of peptide-pulsed target cells; format: cell-based, mouse

Molecule | % Killing (Jurkat cells; co-incubation 1 hr) [%] | % Killing (Jurkat cells; co-incubation 1 hr, listed as bis-(Z-DEVDamide)-Rhodamine 110) | % Killing (Jurkat cells; co-incubation 2 hr) [%] | % of the target cells (CTO+) positive for DEVDase activity (EL4 cells) | % Killing (Jurkat cells; co-incubation 1 hr, listed as phycoerythine (PE) labeled annexin V) [%]
Bis-(N-CBZ-aspartyl-glutamyl-valyl-aspartylamide) Rhodamine 110 [Bis-(N-CBZ-DEVD amide)R22120] | 48.0 | markedly lower than the other two protease indicators | 75.4 |  | 
MT246-256: irrelevant control polyoma virus peptide middle T protein epitope (SNPTYSVM, SEQ ID NO:22) (Synthetic peptide substrate.) |  |  |  | around 10% | 
B1 | 65.6 |  |  |  | 65.5
